# Test results taken from patent US20240270762A1, “PENICILLIN-BINDING PROTEIN INHIBITORS” (priority 2021, published 2024).
# Experiments:
# [1] = target: T1, PBP2 from Neisseria gonorrhoeae (FA19) (Neisseria gonorrhoeae, UniProt P08149); test: Bocillin-FL fluorescence polarization competition binding, N. gonorrhoeae PBP2; conditions: fluorescence polarization competition binding assay using Bocillin-FL, read-out: N. gonorrhoeae PBP2 Potency
# T1 construct: made in house
# From the text: To determine the ability of boronic acid-based test PBP inhibitors to bind Penicillin Binding Proteins (PBPs), Bocillin-FL (fluorescently-labeled penicillin V; ThermoFisher Scientific) was used in a fluorescence polarization (FP) competition binding assay to assess inhibitor binding to PBP3 from Escherichia coli (K-12), PBP3 from Pseudomonas aeruginosa (PAO1), PBP1a and PBP3 from Acinetobacter baumannii (ATCC 19606), and PBP2 from Neisseria gonorrhoeae (FA19). PBPs were cloned and purified as described previously (E. coli PBP3, King, D. T, et al., ACS Infectious Diseases 2015, 1, 175-184; P. aeruginosa PBP3, Han et. al., PNAS 2010, 107 (51), 22002-22007; A. baumannii PBPs, Penwell et. al., Antimicrob. Agents Chemother. 2015, 59 (3), 1680-1689; N. gonorrhoeae PBP2, Singh et. al., J. Biol. Chem. 2019, 294 (38), 14020-14032). To establish assay conditions for competition binding, enzyme titration/saturation binding experiments were initially performed. Bocillin-FL was prepared at 0.2 μM in a buffer comprised of 50 mM Hepes (pH 8.0), 300 mM NaCl and 10% (v/v) glycerol for reactions with E. coli, P. aeruginosa and N. gonorrhoeae PBPs, and 25 mM Tris (pH 8.0), 200 mM NaCl, 10% (v/v) glycerol and 0.005% (v/v) Tween 20 for reactions with A. baumannii PBPs. Saturation binding was performed by mixing 40 μl of PBP solutions ranging in concentrations from 0-24 μM with 40 μl of the 0.2 μM Bocillin-FL solution, in individual wells of a black 384-well microplate. FP was measured immediately upon mixing (Excitation, 490 nm; Emission, 520 nm; g-factor, 0.96), using a Cytation3 (BioTek) microplate reader and measured continuously for up to 120 minutes. […] The competition binding assay (80 μl final volume) was validated using beta-lactams and PBPs at final concentrations of: 1.5 μM for E. coli PBP3; 0.75 μM for P. aeruginosa PBP3; 1 μM for A. baumannii PBP1a; 0.2 μM for A. baumannii PBP3; and 0.25 μM for N. gonorrhoeae PBP2. Bocillin-FL was at 0.1 μM (0.05 μM with A. baumannii PBP1a) and beta-lactam concentrations ranged from 0-1,000 μM. E. coli PBP3 was incubated with increasing concentrations of ampicillin in a black 384-well microplate (Corning) for 30 minutes. P. aeruginosa PBP3 was incubated for 15 minutes with aztreonam, whereas A. baumannii PBP1a and PBP3 were incubated for 15 minutes with meropenem, and then Bocillin-FL was added followed immediately by the FP measurement for up to 60 minutes. […] The beta-lactam potency was reported as the concentration of beta-lactam required to reduce the amount of PBP bound-Bocillin-FL by 50% (EC50). […] Binding assays for boronic acid PBP inhibitors were performed in an identical fashion for the respective PBPs.
# [2] = test system: P. aeruginosa ATCC 27853; test: microbe, parasite or virus in culture; format: cell-based; conditions: Pseudomonas aeruginosa, ATCC27853, read-out: MIC P. aeruginosa ATCC 27853
# [3] = test system: A. baumannii ATCC 19606; test: microbe, parasite or virus in culture; format: cell-based; conditions: Acinetobacter baumannii, ATCC19606, read-out: MIC, A. baumannii ATCC 19606
# [4] = test system: N. gonorrhoeae FA1090; test: Liquid broth MIC in Fastidious broth; conditions: Neisseria gonorrhoeae, FA1090, read-out: Minimum Inhibitory Concentration (MIC), N. gonorrhoeae FA 1090
# [5] = test system: N. gonorrhoeae WHO K; test: Liquid broth MIC in Fastidious broth; conditions: Neisseria gonorrhoeae, read-out: Minimum Inhibitory Concentration (MIC), N. gonorrhoeae WHO K
# Method: Liquid broth-based assays were used for antibacterial testing of PBP inhibitors in Neisseria gonorrhoeae. Briefly, cryo-preserved bacterial cultures of clinical strains were streaked for isolation on Chocolate Agar (72 g/L (2×) GC Agar Base (BD #228950) and 2% (2×) Hemoglobin was autoclaved at 121° C. for 20 minutes to sterilize. Once cooled to ˜50° C. the 2×GC Agar Base and 2× Hemoglobin solutions are combined and 1% IsoVitaleX Enrichment (BD #211876) was added to the solution). Strains were incubated at 36° C. and 5% CO2 to allow growth of colonies, 24 hours before inoculum preparation. 2-fold serial dilutions of test compounds were conducted in a 96 well plate with a final volume of 75 μL per well at 2-fold the final desired concentration in Fastidious broth (Remel #R07664). For preparation of assay inoculum, a direct suspension was prepared by aseptically swabbing 10-15 colonies from agar plates into culture tubes containing 2 mL of fresh sterile saline. After the dilution plates were set up, direct suspensions were then diluted in a cuvette containing sterile saline and the optical density was measured at 600 nm. Inocula were diluted such that 75 μL of this culture in Fastidious broth results in a starting bacterial concentration of 5×10^5 CFU/mL when added to the dilution plates. The plates were incubated for ˜24 hours at 36° C. and 5% CO2.
# [6] = test system: N. gonorrhoeae WHO Z; test: Liquid broth MIC in Fastidious broth; conditions: Neisseria gonorrhoeae, read-out: Minimum Inhibitory Concentration (MIC), N. gonorrhoeae WHO Z
# [7] = test system: N. gonorrhoeae WHO Q; test: Liquid broth MIC in Fastidious broth; conditions: Neisseria gonorrhoeae, read-out: Minimum Inhibitory Concentration (MIC), N. gonorrhoeae WHO Q
# [8] = test system: N. gonorrhoeae CDC-0197; test: Liquid broth MIC in Fastidious broth; conditions: Neisseria gonorrhoeae, CDC0197, read-out: Minimum Inhibitory Concentration (MIC), N. gonorrhoeae CDC-0197
# T1 sequence (P08149 whole entry): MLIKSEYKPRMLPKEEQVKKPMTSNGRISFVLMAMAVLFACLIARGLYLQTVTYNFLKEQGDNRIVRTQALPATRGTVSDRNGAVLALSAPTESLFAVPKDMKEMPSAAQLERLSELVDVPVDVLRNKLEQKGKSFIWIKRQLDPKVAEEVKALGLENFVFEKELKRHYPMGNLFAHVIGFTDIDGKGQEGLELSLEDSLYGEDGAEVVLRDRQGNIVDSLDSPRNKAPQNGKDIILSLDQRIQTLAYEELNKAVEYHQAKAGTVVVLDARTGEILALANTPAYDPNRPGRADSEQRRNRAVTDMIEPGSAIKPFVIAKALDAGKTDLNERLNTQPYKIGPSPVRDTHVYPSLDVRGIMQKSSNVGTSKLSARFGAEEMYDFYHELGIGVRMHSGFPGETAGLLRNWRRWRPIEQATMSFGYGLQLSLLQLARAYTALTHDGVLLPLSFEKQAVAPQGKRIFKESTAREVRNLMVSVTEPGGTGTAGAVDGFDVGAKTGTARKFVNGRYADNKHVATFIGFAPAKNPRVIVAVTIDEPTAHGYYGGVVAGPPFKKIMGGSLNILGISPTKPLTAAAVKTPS
Compound,EC50 [1],MIC [2],MIC [3],MIC [4],MIC [5],MIC [6],MIC [7],MIC [8]
"O=C(O)c1cccc2c1OB(O)[C@@H](NC(=O)[C@H](NC(=O)c1ccn[nH]c1=O)c1ccc(P(=O)(O)O)cc1)C2 (single isomer, unassigned) [Example 178]",< 10 µM,32 to 64 µg/mL,32 to 64 µg/mL,< 1 µg/mL,1 to 2 µg/mL,< 1 µg/mL,1 to 2 µg/mL,< 1 µg/mL
"CN1CCCN(C(=O)NC(C(=O)N[C@H]2Cc3cccc(C(=O)O)c3OB2O)c2ccc(P(=O)(O)O)cc2)C1=O (stereo partly drawn) [Example 38, (3R)-2-hydroxy-3-(2-(3-methyl-2-oxohexahydropyrimidine-1-carboxamido)-2-(4-phosphonophenyl)acetamido)-3,4-dihydro-2H-benzo[e][1,2]oxaborinine-8-carboxylic acid]",< 10 µM,> 128 µg/mL,> 128 µg/mL,< 1 µg/mL,4 to 8 µg/mL,1 to 2 µg/mL,4 to 8 µg/mL,1 to 2 µg/mL
"CCC(=O)NC(C(=O)N[C@H]1Cc2cccc(C(=O)O)c2OB1O)c1ccc(P(=O)(O)O)cc1 (stereo partly drawn) [Example 27, (3R)-2-hydroxy-3-(2-(4-phosphonophenyl)-2-propionamidoacetamido)-3,4-dihydro-2H-benzo[e][1,2]oxaborinine-8-carboxylic acid]",10 to 50 µM,> 128 µg/mL,> 128 µg/mL,4 to 8 µg/mL,16 to 32 µg/mL,16 to 32 µg/mL,16 to 32 µg/mL,16 to 32 µg/mL
"O=C(O)c1cccc2c1OB(O)[C@@H](NC(=O)C(NC(=O)c1ncccc1Cl)c1ccc(P(=O)(O)O)cc1)C2 (stereo partly drawn) [Example 183, (3R)-3-(2-(3-chloropicolinamido)-2-(4-phosphonophenyl)acetamido)-2-hydroxy-3,4-dihydro-2H-benzo[e][1,2]oxaborinine-8-carboxylic acid]",< 10 µM,> 128 µg/mL,> 128 µg/mL,1 to 2 µg/mL,16 to 32 µg/mL,16 to 32 µg/mL,16 to 32 µg/mL,16 to 32 µg/mL
"Nc1nc(C(=O)N[C@@H](C(=O)N[C@H]2Cc3cccc(C(=O)O)c3OB2O)c2ccc(P(=O)(O)O)cc2)cs1 (racemic) [Example 51, (R)-3-((S)-2-(2-aminothiazole-4-carboxamido)-2-(4-phosphonophenyl)acetamido)-2-hydroxy-3,4-dihydro-2H-benzo[e][1,2]oxaborinine-8-carboxylic acid and (R)-3-((R)-2-(2-aminothiazole-4-carboxamido)-2-(4-phosphonophenyl)acetamido)-2-hydroxy-3,4-dihydro-2H-benzo[e][1,2]oxaborinine-8-carboxylic acid]",< 10 µM,> 128 µg/mL,> 128 µg/mL,< 1 µg/mL,1 to 2 µg/mL,1 to 2 µg/mL,1 to 2 µg/mL,< 1 µg/mL
"CC(C)C(=O)NC(C(=O)N[C@H]1Cc2cccc(C(=O)O)c2OB1O)c1ccc(P(=O)(O)O)cc1 (stereo partly drawn) [Example 28, (3R)-2-hydroxy-3-(2-isobutyramido-2-(4-phosphonophenyl)acetamido)-3,4-dihydro-2H-benzo[e][1,2]oxaborinine-8-carboxylic acid]",< 10 µM,> 128 µg/mL,> 128 µg/mL,4 to 8 µg/mL,16 to 32 µg/mL,16 to 32 µg/mL,16 to 32 µg/mL,16 to 32 µg/mL
"O=C(O)c1cccc2c1OB(O)[C@@H](NC(=O)[C@@H](NC(=O)N1CCNC1=O)c1ccc(P(=O)(O)O)cc1)C2 [Example 39, (R)-2-hydroxy-3-((S)-2-(2-oxoimidazolidine-1-carboxamido)-2-(4-phosphonophenyl)acetamido)-3,4-dihydro-2H-benzo[e][1,2]oxaborinine-8-carboxylic acid]",10 to 50 µM,> 128 µg/mL,> 128 µg/mL,< 1 µg/mL,16 to 32 µg/mL,1 to 2 µg/mL,4 to 8 µg/mL,1 to 2 µg/mL
"O=C(N[C@@H](C(=O)N[C@H]1Cc2cccc(C(=O)O)c2OB1O)c1ccc(P(=O)(O)O)cc1)c1ccc(C(F)(F)F)cn1 (single isomer, unassigned) [Example 193]",< 10 µM,> 128 µg/mL,> 128 µg/mL,< 1 µg/mL,1 to 2 µg/mL,< 1 µg/mL,1 to 2 µg/mL,< 1 µg/mL
"CS(=O)(=O)N1CCC[C@@H]1C(=O)N[C@@H](C(=O)N[C@H]1Cc2cccc(C(=O)O)c2OB1O)c1ccc(P(=O)(O)O)cc1 [Example 35, (R)-2-hydroxy-3-((R)-2-((R)-1-(methylsulfonyl)pyrrolidine-2-carboxamido)-2-(4-phosphonophenyl)acetamido)-3,4-dihydro-2H-benzo[e][1,2]oxaborinine-8-carboxylic acid]",< 10 µM,> 128 µg/mL,> 128 µg/mL,< 1 µg/mL,4 to 8 µg/mL,4 to 8 µg/mL,4 to 8 µg/mL,4 to 8 µg/mL
"CS(=O)(=O)N1CCN(C(=O)NC(C(=O)N[C@H]2Cc3cccc(C(=O)O)c3OB2O)c2ccc(P(=O)(O)O)c(F)c2)C1=O (stereo partly drawn) [Example 12, (3R)-3-(2-(3-fluoro-4-phosphonophenyl)-2-(3-(methylsulfonyl)-2-oxoimidazolidine-1-carboxamido)acetamido)-2-hydroxy-3,4-dihydro-2H-benzo[e][1,2]oxaborinine-8-carboxylic acid]",< 10 µM,> 128 µg/mL,32 to 64 µg/mL,< 1 µg/mL,< 1 µg/mL,< 1 µg/mL,< 1 µg/mL,< 1 µg/mL
"CS(=O)(=O)N1CCN(C(=O)N[C@@H](C(=O)N[C@H]2Cc3ccc(F)c(C(=O)O)c3OB2O)c2ccc(P(=O)(O)O)c(F)c2F)C1=O [Example 16, (R)-3-((R)-2-(2,3-difluoro-4-phosphonophenyl)-2-(3-(methylsulfonyl)-2-oxoimidazolidine-1-carboxamido)acetamido)-7-fluoro-2-hydroxy-3,4-dihydro-2H-benzo[e][1,2]oxaborinine-8-carboxylic acid]",< 10 µM,> 128 µg/mL,> 128 µg/mL,< 1 µg/mL,< 1 µg/mL,< 1 µg/mL,< 1 µg/mL,< 1 µg/mL
"CN1CCN(C(=O)NC(C(=O)N[C@H]2Cc3cccc(C(=O)O)c3OB2O)c2ccc(P(=O)(O)O)cc2)C1=O (stereo partly drawn) [Example 41, (3R)-2-hydroxy-3-(2-(3-methyl-2-oxoimidazolidine-1-carboxamido)-2-(4-phosphonophenyl)acetamido)-3,4-dihydro-2H-benzo[e][1,2]oxaborinine-8-carboxylic acid]",< 10 µM,> 128 µg/mL,32 to 64 µg/mL,< 1 µg/mL,< 1 µg/mL,< 1 µg/mL,< 1 µg/mL,< 1 µg/mL
